Assay results taken from patent US20220054561A1, “LACHNOSPIRACEAE MITIGATES AGAINST RADIATION-INDUCED HEMATOPOIETIC/GASTROINTESTINAL INJURY AND DEATH, AND PROMOTES CANCER CONTROL BY RADIATION” (priority 2018, published 2022).

Assays:
Assay type in all cases: in vivo, mouse
[1] = test system: SPF mice; test: Tryptophan metabolites treatment and lethal radiation; conditions: lethal radiation, monitored 30 days
Description: Metabolite profiles were measured in fecal samples of AM-Ctrl and ES mice at Day 290 post TBI. Total ion chromatogram (TIC) metabolomic cloudplot (p<0.01) (FIG. 14A) and PCA score plot (14B) show distinct metabolites separation between these two groups. […] In FIG. 14D, metabolic network graphs (MetaMapp) were generated to integrate the biochemical pathways and chemical relationships of all detected metabolites. Identified metabolites are represented by circle nodes, with lower transparency indicating lower p-values from Welch's t-test. Lighter grey nodes denote metabolites with higher abundance in ES group; darker grey nodes denote those higher in AM-Ctrl group. Solid grey lines connecting distinct metabolites symbolize KEGG reactant pair links; dashed grey lines symbolize chemical similarity with a Tanimoto coefficient score >0.7. Tryptophan metabolites are highlighted by a large shadow (labelled), while other metabolite families are distinguished by separate shadowed areas. FIG. 14E is a schematic of tryptophan metabolites treatment. Survival rates (FIG. 14F) and clinical scores (FIG. 14G) were monitored for 30 days. Error bars show SEM, *p<0.05, **p<0.01, ***p<0.001 determined by log-rank (Mantel Cox) test (FIG. 14F) and Mann-Whitney test for area under the curve (AUC) (FIG. 14G). […]

[2] = test system: SPF C57BL/6 mice; test: Acetate, butyrate or propionate supplemented water for 8 weeks followed by lethal dose TBI
From the text: FIG. 11A is a schematic of short chain fatty acids (SCFAs) treatment. Survival rates (FIG. 11B) and clinical scores (FIG. 11C) were monitored for 30 days. Femurs and spleens were stained for H&E and quantified for BM cellularity and spleen EMH scores (FIG. 11D). White pulp (WP, black dash circles), red pulp (RP, area between black solid lines), and megakaryocytes (black arrows) are shown. […] Total CMP, GMP and MEP percentages of Lin^− cells are shown in the right histogram. Representative images are shown. Mucus layer is indicated by area between dash lines and crypt length is indicated by double-headed arrow. Mucus layer thickness and crypt length were quantified. Error bars show SEM, *p<0.05, **p<0.01, *** p<0.001 determined by log-rank (Mantel Cox) test (B), Mann-Whitney test for area under the curve (AUC) (C) and Student's t test (D, E, F).
SPF C57BL/6 mice were treated with acetate, butyrate or propionate supplemented water for 8 weeks respectively, followed by a lethal dose TBI (FIG. 11A). […] To examine the effect of propionate on the gastrointestinal system, Alcian blue and periodic acid-Schiff (AB/PAS) staining of all intracellular mucin glycoproteins within goblet cells was completed.

[3] = test system: SPF C57BL/6 mice; test: Butyrate contained water for 8 weeks followed by total body irradiation; conditions: butyrate water 8 weeks, TBI; control recipients 43%
Description: Butyrate production was determined by Mass Spectrometry from Non-TBI controls versus LL-TBI survivors (FIG. 7A), Control Recipients versus Survivor Recipients from dirty cage sharing expt. as shown in FIG. 2A (FIG. 7B), Control Recipients versus Survivor Recipients from FMT in GF mice expt. as shown in FIG. 4A (FIG. 7C). FIG. 7D includes a schematic of butyrate treatment of 6-8 weeks SPF C57BL/6 mice. After 8 weeks of butyrate treatment, recipients received total body irradiation. Survival rates (FIG. 7E), clinical scores (FIG. 7F), body weight changes (FIG. 7G) and body temperatures (FIG. 7H) were monitored for 30 days post TBI. (Control Recipients, n=14; Butyrate Recipients, n=16).
It is well established that Clostridiales and Lachnospiraceae bacterial groups produce short chain fatty acids (SCFAs) via fermentation of dietary polysaccharides^32-34. SCFAs especially butyrate, which is the most commonly studied SCFA, are important substrates for maintaining intestinal epithelium and play a role in regulating immune system and inflammatory response. Increased abundance of Lachnospiraceae is expected to enhance the capability to produce SCFAs. To validate this hypothesis, the concentrations of lactate, propionate, isobutyrate and butyrate were detected in each individual Lachnospiraceae strain within the disclosed 23 stains pool. […]

`O=C(O)c1cc(=O)c2ccccc2[nH]1` [KYNA, kynurenic acid] was tested, and the survival rates [1] was “around 75%”.

`CC(=O)O` [acetate] was tested, and the “protection (survival, clinical scores)” value ([2]; supplemented water 8 weeks, lethal dose TBI) was “slight protection”.

For `CCC(=O)O` [propionate], the bone marrow cellularity ([2]; H&E femurs) was “Elevated bone marrow cellularity”, the “mucus thickness and crypt length” value ([2]; colon AB/PAS staining, versus control) was “significantly increased” and the “total Sca1−cKit+ progenitor cells (GMP, CMP, MEP) in BM” value ([2]; flow cytometry, versus control recipients) was “significant increase”. The Thirty-day survival rates ([2]; supplemented water 8 weeks, lethal dose TBI, control group 28%) was 79% and the clinical scores ([2]; versus control group) was “lower clinical scores”.

For `O=Cc1c[nH]c2ccccc12` [I3A, indole-3-carboxaldehyde], the survival rates [1] was “around 75%”.

`CCCC(=O)O` [butyrate] showed a thirty-day survival rate [3] of 68%.
